Structures can show the parent of a compound that is named as a salt.
What was measured:
[1] = system: biomechanical platelet aggregation; experiment: Microfluidic stenosis assay (thrombus size, single fluorescence imaging); assay type: cell-based, human; conditions: for thrombus formation: replacing heparin for anticoagulation; for inhibition to the biomechanical thrombogenesis: separately and combined at twice or 20 times of human plasmatic concentrations
Experimental: Microfluidic devices with single-hump stenosis microchannels can be coated with VWF monomer solution. Heparin added whole blood is incubated with DiOC6 (3), or with a set of predetermined sensors. As used herein, a sensor is a compound or protein (e.g., antibody) that specifically binds a selected molecule, peptide, or protein present in a thrombus, the sensor can optionally include a detectable tag. A detectable tag can include but is not limited to a fluorescent tag. In certain aspects a first sensor set (Sensor Set 1) can include one or more of SZ22-FITC, Fg-Alexa Fluor® 405, 2.2.9-Alexa Fluor® 555 and AK4-Alexa Fluor® 647. In certain aspects a second sensor set (Sensor Set 2) can include SZ22-FITC, Annexin V-Pacific Blue, MBC 370.2-Alexa Fluor® 555 and PAC-1-Alexa Fluor® 647. A thrombogenic sample, e.g., blood, can be introduced via a reservoir at a microchannel inlet and perfused through the microchannel at a predetermined flow rate. In certain aspects the sample is moved through the microchannel using a pump withdraw mode via a syringe or similar apparatus connected to a microchannel outlet. The microchannel at the site of stenosis can be recorded in real time with multi-fluorescence imaging using appropriate equipment. In certain aspects the multi-fluorescence imaging is performed with a LED5 fluorescence light source and a multi-pass filter (excitation-emission: 391/32-435/30, 479/33-519/25, 554/24-594/32 and 638/31-695/58 nm). Autofluorescence of platelets can be detected in the 391/32-435/30 nm channel (Lohmann and Lohmann, Biochemical and biophysical research communications 152, 1410-1415, 1988), the signal intensity of which can be subtracted when calculating signals from other sensors.
Thrombus profiling assay: development and validation. Each microfluidic chip is composed of 10 rectangular (width×height: 200 μm×50 μm) channels with respective inlets and outlets for tubing connection (FIG. 1A, 1B). A pump drives a syringe to perfuse heparinized blood (0.5 mL) through the channel pre-coated with VWF. An 80% stenosis site stimulates biomechanical thrombogenesis (FIG. 1C). A perfusion rate of 18 μL min^−1 was selected, which creates a wall shear stress (WSS) of 857 dyn cm^−2 at the stenosis site according to fluid dynamics simulation (FIG. 1D). The same stenosis site WSS is achieved by an inlet wall shear rate of 1485 s-1 in a circular vessel with the same cross-sectional area, mimicking human arterioles (Yakusheva et al. Blood advances 6, 4834-46), human arteries during systole, and mouse arteries (Panteleev et al., Journal of thrombosis and haemostasis JTH 19, 588-95). The calculated Reynolds numbers in channels of different shapes are also within the same scale. […]

[2] = system: ADP or collagen-induced platelet aggregation; conditions: at much lower concentrations; cited from earlier work
[3] = phase III trials; cited from earlier work

| SMILES | thrombus formation [1] | inhibition to the biomechanical thrombogenesis [1] | inhibition of ADP or collagen-induced platelet aggregation [2] | patient mortality vs placebo [3] |
| --- | --- | --- | --- | --- |
| O=C(O)CN(CCN(CC(=O)O)CC(=O)O)CC(=O)O [EDTA, ethylenediaminetetraacetic acid] | attenuated | – | – | – |
| CC(=O)Oc1ccccc1C(=O)O [aspirin] | – | negligible inhibition | significantly inhibit | – |
| O=C(O)CC(O)(CC(=O)O)C(=O)O [citrate, sodium citrate] | attenuated | – | – | – |
| COC(=O)[C@H](c1ccccc1Cl)N1CCc2sccc2C1 [clopidogrel] | – | negligible inhibition | significantly inhibit | – |
| CCOC(=O)CCNC(=O)N[C@H]1CCN(c2ccc(C(=N)N)cc2)C1=O [orbofiban] | – | – | – | significantly increased |

Reference: patent publication US20250189537A1, “MULTI-FLUORESCENCE MICROFLUIDIC PLATFORM FOR EVALUATING RISKS OF SHEAR-DRIVEN ARTERIAL THROMBOSIS AND FAST ANTITHROMBOTIC DRUG SCREENING” (Board of Regents, The University of Texas System, priority 2023, published 2025)
